Measured values taken from patent publication US12077503B2, “Substituted cyclic amides and their use as herbicides” (FMC CORPORATION, priority 2015, dated 2024).

How the values were obtained:
Assay type in all cases: in vivo
[1] = system: ryegrass, Italian (Italian ryegrass, Lolium multiflorum); test: Test A postemergence
Procedure, shortened: (§1)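 Each rating is a visual injury score from 0 to 100 given about 10 d after treatment, judged against untreated controls kept alongside in the greenhouse. In loam soil–sand blend, seeds got a preemergence directed soil spray, while postemergence plants were 2 to 10 cm tall at spraying.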

[2] = system: giant foxtail (Setaria faberii); test: Test A postemergence
Procedure, shortened: as §1

[3] = system: wheat (Triticum aestivum); test: Test A postemergence
Procedure, shortened: as §1

[4] = system: Galium (catchweed bedstraw, Galium aparine); test: Test A postemergence
Procedure, shortened: as §1

[5] = system: pigweed (Amaranthus retroflexus); test: Test A postemergence
Procedure, shortened: as §1

[6] = system: blackgrass (Alopecurus myosuroides); test: Test A postemergence
Procedure, shortened: as §1

[7] = system: ragweed (common ragweed, Ambrosia elatior); test: Test A postemergence
Procedure, shortened: as §1

[8] = system: barnyardgrass (Echinochloa crus-galli); test: Test A postemergence
Procedure, shortened: as §1

corn (Zea mays) = test: Test A postemergence
Procedure, shortened: as §1

Kochia (Kochia scoparia) [9] = test: Test A postemergence
Procedure, shortened: as §1

[10] = system: ducksalad (Heteranthera limosa); test: Test B flooded paddy test; settings: Flood, 250 g ai/ha; 0 to 100 scale where 0 is no effect and 100 is complete control; 13 to 15 d
Procedure, shortened: (§2)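 Response scored visually against untreated controls, 0 = no effect and 100 = complete control, 13–15 d after treatment in the greenhouse. Compounds added to paddy water held 3 cm above soil surface. Treatment given at 2-leaf stage.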

[11] = system: sedge, umbrella (small-flower umbrella sedge, Cyperus difformis); test: Test B flooded paddy test; settings: Flood, 250 g ai/ha; 0 to 100 scale where 0 is no effect and 100 is complete control; 13 to 15 d
Procedure, shortened: as §2

rice (Oryra sativa) = test: Test B flooded paddy test; settings: Flood, 250 g ai/ha; 0 to 100 scale where 0 is no effect and 100 is complete control; 13 to 15 d
Procedure, shortened: as §2

[12] = system: barnyardgrass (Echinochloa crus-galli); test: Test B flooded paddy test; settings: Flood, 250 g ai/ha; 0 to 100 scale where 0 is no effect and 100 is complete control; 13 to 15 d
Procedure, shortened: as §2

[13] = system: ryegrass, Italian (Italian ryegrass, Lolium multiflorum); test: Test A preemergence
Procedure, shortened: as §1

[14] = system: giant foxtail (Setaria faberii); test: Test A preemergence
Procedure, shortened: as §1

[15] = system: pigweed (Amaranthus retroflexus); test: Test A preemergence
[16] = system: ragweed (common ragweed, Ambrosia elatior); test: Test A preemergence
Procedure, shortened: as §1

[17] = system: barnyardgrass (Echinochloa crus-galli); test: Test A preemergence
Procedure, shortened: as §1

Kochia (Kochia scoparia) [18] = test: Test A preemergence
Procedure, shortened: as §1

[19] = 125 g ai/ha, postemergence, visual rating after approx. 10 d, 0 to 100 scale (0 no effect, 100 complete control)
[20] = 500 g ai/ha, postemergence, visual injury, 0 to 100 scale (0 no effect, 100 complete control), approx. 10 d
[21] = 125 g ai/ha, Preemergence, visual injury after approximately 10 d, 0 to 100 scale where 0 is no effect and 100 is complete control
[22] = 500 g ai/ha, preemergence, 0 to 100 scale, 0 = no effect, 100 = complete control
[23] = 125 g ai/ha, postemergence, visual injury rating on 0 to 100 scale (0 no effect, 100 complete control), approx. 10 d
[24] = Postemergence, 500 g ai/ha, 0 to 100 scale where 0 is no effect and 100 is complete control
[25] = Preemergence, 500 g ai/ha, visual injury approx. 10 d

Compound: Cc1cccc(C2CN(C)C(=O)C2C(=O)Nc2ccccc2F)c1 (stereo not drawn) [Compound 666]
- Plant response rating, Ryegrass, Italian [1, 19]: 20
- Plant response rating, Ryegrass, Italian [1, 20]: 60
- Plant response rating, Foxtail, Giant [2, 19]: 90
- Plant response rating, Foxtail, Giant [2, 20]: 90
- Plant response rating, Wheat [3, 19]: 20
- Plant response rating, Wheat [3, 20]: 60
- Plant response rating, Galium [4, 19]: 30
- Plant response rating, Galium [4, 20]: 40
- Plant response rating, Pigweed [5, 19]: 0
- Plant response rating, Pigweed [5, 20]: 0
- Plant response rating, Blackgrass [6, 19]: 60
- Plant response rating, Blackgrass [6, 20]: 60
- Plant response rating, Ragweed [7, 19]: 0
- Plant response rating, Ragweed [7, 20]: 0
- Plant response rating, Barnyardgrass [8, 19]: 90
- Plant response rating, Barnyardgrass [8, 20]: 90
- Plant response rating, Corn (corn (Zea mays); [19]): 60
- Plant response rating, Corn (corn (Zea mays); [20]): 80
- Plant response rating, Kochia (Kochia (Kochia scoparia) [9]; [19]): 0
- Plant response rating, Kochia (Kochia (Kochia scoparia) [9]; [20]): 30
- Plant response rating, Ducksalad [10]: 85
- Plant response rating, Sedge, Umbrella [11]: 0
- Plant response rating, Rice (rice (Oryra sativa)): 0
- Plant response rating, Barnyardgrass [12]: 75
- Plant response rating, Ryegrass, Italian [13, 21]: 20
- Plant response rating, Ryegrass, Italian [13, 22]: 50
- Plant response rating, Foxtail, Giant [14, 21]: 100
- Plant response rating, Foxtail, Giant [14, 22]: 100
- Plant response rating, Pigweed [15, 21]: 0
- Plant response rating, Pigweed [15, 22]: 20
- Plant response rating, Ragweed [16, 21]: 0
- Plant response rating, Ragweed [16, 22]: 70
- Plant response rating, Barnyardgrass [17, 21]: 90
- Plant response rating, Barnyardgrass [17, 22]: 90
- Plant response rating, Kochia (Kochia (Kochia scoparia) [18]; [21]): 20
- Plant response rating, Kochia (Kochia (Kochia scoparia) [18]; [22]): 60

Compound: COCc1cccc(C2CNC(=O)C2C(=O)Nc2cccc(F)c2F)c1 (stereo not drawn) [Compound 497]
- Ryegrass, Italian plant response rating [1, 23]: 0
- Plant response rating, Ryegrass, Italian [1, 24]: 20
- Foxtail, Giant plant response rating [2, 23]: 20
- Plant response rating, Foxtail, Giant [2, 24]: 50
- Wheat plant response rating [3, 23]: 0
- Plant response rating, Wheat [3, 24]: 40
- Galium plant response rating [4, 23]: 0
- Plant response rating, Galium [4, 24]: 50
- Pigweed plant response rating [5, 23]: 0
- Plant response rating, Pigweed [5, 24]: 0
- Blackgrass plant response rating [6, 23]: 30
- Plant response rating, Blackgrass [6, 24]: 30
- Ragweed plant response rating [7, 23]: 0
- Plant response rating, Ragweed [7, 24]: 0
- Barnyardgrass plant response rating [8, 23]: 60
- Plant response rating, Barnyardgrass [8, 24]: 80
- Corn plant response rating (corn (Zea mays); [23]): 0
- Plant response rating, Corn (corn (Zea mays); [24]): 40
- Kochia plant response rating (Kochia (Kochia scoparia) [9]; [23]): 30
- Plant response rating, Kochia (Kochia (Kochia scoparia) [9]; [24]): 30
- Plant response rating, Ducksalad [10]: 90
- Plant response rating, Sedge, Umbrella [11]: 0
- Plant response rating, Rice (rice (Oryra sativa)): 20
- Plant response rating, Barnyardgrass [12]: 70
- Plant response rating, Ryegrass, Italian [13, 21]: 0
- Ryegrass, Italian plant response rating (0 to 100 scale, 0 is no effect, 100 is complete control) [13, 25]: 30
- Plant response rating, Foxtail, Giant [14, 21]: 90
- Foxtail, Giant plant response rating (0 to 100 scale, 0 is no effect, 100 is complete control) [14, 25]: 90
- Plant response rating, Pigweed [15, 21]: 30
- Pigweed plant response rating (0 to 100 scale, 0 is no effect, 100 is complete control) [15, 25]: 20
- Plant response rating, Ragweed [16, 21]: 0
- Ragweed plant response rating (0 to 100 scale, 0 is no effect, 100 is complete control) [16, 25]: 0
- Plant response rating, Barnyardgrass [17, 21]: 90
- Barnyardgrass plant response rating (0 to 100 scale, 0 is no effect, 100 is complete control) [17, 25]: 90
- Plant response rating, Kochia (Kochia (Kochia scoparia) [18]; [21]): 20
- Kochia plant response rating (0 to 100 scale, 0 is no effect, 100 is complete control) (Kochia (Kochia scoparia) [18]; [25]): 50
